Assay results: ChEMBL document CHEMBL1201862, “PubChem BioAssay data set” (2004)
The source made the active and inactive calls.

Experiments:
[1] = molecular target: Heat shock protein HSP 90-alpha (Homo sapiens, UniProt P07900); type: functional, organism-based
ORF 73 = ORF 73 (Human herpesvirus 8, UniProt O40947); test: KSHV LANA DNA-binding disruption – biochemical, fluorescence polarization, cherry-picked samples, dose response (AID 504725); parameters: species or system Human gammaherpesvirus 8;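 note: fluorescence polarization of a labeled DNA duplex reporting LANA DNA binding; potency is for inhibitors that block LANA binding to the DNA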
Sequence of ORF 73 (O40947 whole entry): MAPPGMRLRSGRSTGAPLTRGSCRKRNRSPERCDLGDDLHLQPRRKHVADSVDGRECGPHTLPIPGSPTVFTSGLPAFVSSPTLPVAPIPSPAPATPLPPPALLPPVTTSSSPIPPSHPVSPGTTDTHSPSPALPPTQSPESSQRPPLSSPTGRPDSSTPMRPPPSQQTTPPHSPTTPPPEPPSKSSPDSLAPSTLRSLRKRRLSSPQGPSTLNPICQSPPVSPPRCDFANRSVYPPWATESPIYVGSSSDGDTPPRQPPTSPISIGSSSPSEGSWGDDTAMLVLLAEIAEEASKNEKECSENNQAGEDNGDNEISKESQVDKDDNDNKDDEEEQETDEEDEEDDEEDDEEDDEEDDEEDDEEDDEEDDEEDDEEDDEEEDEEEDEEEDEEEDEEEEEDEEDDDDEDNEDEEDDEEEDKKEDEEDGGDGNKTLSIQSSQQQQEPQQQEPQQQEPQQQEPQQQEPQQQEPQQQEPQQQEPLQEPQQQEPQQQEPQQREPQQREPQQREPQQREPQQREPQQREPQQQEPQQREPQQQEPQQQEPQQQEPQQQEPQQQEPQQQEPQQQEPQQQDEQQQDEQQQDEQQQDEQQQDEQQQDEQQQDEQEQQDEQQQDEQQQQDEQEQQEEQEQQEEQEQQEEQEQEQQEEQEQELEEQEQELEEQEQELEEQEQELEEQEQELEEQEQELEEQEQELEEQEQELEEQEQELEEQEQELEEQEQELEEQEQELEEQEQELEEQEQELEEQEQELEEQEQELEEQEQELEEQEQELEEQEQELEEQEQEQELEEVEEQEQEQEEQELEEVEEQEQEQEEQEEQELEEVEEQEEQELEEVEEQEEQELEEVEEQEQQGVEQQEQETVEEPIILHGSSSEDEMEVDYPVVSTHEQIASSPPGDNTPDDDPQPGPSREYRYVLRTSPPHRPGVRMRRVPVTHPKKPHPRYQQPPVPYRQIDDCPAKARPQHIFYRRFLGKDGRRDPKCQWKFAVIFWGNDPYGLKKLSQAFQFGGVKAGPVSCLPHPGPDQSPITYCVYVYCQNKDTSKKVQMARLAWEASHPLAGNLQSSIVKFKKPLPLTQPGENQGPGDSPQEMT

[2] = molecular target: T1, Heat shock factor protein 1 (Mus musculus, UniProt P38532); test: decrease of HSF1-responsive luciferase luminescence – cell-based, NIH3T3, dose retest, confirmation (AID 2382); type: functional;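 note: NIH3T3 fibroblasts with HSF1-driven luciferase reporter stressed by proteasome inhibitor MG132; luminescence from HSF1-driven luciferase expression after 8 hours of MG132 stress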
T1 sequence (P38532 whole entry): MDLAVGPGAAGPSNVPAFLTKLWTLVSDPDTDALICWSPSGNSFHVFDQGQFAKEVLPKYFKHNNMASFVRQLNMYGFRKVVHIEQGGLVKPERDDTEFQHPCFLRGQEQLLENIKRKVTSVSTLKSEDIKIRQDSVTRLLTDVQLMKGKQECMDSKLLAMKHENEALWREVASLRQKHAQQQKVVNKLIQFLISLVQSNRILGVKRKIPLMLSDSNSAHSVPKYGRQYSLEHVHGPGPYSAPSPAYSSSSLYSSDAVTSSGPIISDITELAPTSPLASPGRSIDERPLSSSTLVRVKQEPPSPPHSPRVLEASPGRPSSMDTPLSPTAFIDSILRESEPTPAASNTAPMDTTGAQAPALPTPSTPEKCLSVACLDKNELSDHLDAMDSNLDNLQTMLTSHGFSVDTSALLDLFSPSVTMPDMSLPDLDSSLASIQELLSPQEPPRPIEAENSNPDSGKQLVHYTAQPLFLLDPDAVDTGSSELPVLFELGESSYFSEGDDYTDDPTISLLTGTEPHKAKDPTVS

Genome polyprotein = Genome polyprotein (dengue virus type 2, UniProt P29990); test: flavivirus cap methylation enzyme inhibition – biochemical, confirmation dose response, primary screen (AID 588689); type: functional
Cysteine protease ATG4B = molecular target: T2, Cysteine protease ATG4B (Homo sapiens, UniProt Q9Y4P1); type: functional;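 note: Fluorescence-based dose-response confirmation assay measuring inhibition of ATG4B activity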
T2 sequence (Q9Y4P1 whole entry): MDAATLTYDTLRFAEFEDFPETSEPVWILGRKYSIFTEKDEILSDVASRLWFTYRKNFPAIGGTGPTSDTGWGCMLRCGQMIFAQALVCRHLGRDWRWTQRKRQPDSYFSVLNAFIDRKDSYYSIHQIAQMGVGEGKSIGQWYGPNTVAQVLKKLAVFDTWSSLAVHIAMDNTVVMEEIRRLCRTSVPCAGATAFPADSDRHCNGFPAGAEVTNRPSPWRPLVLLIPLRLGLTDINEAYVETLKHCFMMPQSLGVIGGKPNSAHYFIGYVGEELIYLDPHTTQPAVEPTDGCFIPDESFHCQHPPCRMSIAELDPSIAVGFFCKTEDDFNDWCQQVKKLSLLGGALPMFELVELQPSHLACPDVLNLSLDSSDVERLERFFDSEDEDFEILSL

Prothrombin = Prothrombin (Bos taurus, UniProt P00735); test: thrombin protease inhibitors – biochemical, fluorescence polarization, uHTS hits, dose response (AID 602369); type: functional
[3] = molecular target: T3, Alkaline phosphatase, tissue-nonspecific isozyme (Homo sapiens, UniProt P05186); test: TNAP enzyme inhibition by screening hits, dose response, selectivity assay for mouse IAP inhibitor project, biochemical, human TNAP, uHTS hits (AID 488906); type: functional
T3 sequence (P05186 whole entry): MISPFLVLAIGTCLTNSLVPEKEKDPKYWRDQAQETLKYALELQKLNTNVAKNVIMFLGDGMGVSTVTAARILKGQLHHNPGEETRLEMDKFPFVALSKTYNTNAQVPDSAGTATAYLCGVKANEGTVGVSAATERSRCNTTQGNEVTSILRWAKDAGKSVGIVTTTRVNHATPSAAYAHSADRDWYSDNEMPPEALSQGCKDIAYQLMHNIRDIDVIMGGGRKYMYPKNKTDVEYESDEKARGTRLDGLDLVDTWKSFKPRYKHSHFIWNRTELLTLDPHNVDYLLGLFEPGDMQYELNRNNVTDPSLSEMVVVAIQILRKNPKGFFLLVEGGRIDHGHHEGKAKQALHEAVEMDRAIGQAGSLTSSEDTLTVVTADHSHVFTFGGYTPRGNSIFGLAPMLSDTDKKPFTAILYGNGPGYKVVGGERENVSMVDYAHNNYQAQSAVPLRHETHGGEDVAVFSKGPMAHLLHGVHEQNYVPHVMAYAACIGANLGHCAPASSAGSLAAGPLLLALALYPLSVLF

SUMO-activating enzyme [4] = molecular target: T4, SUMO-activating enzyme (Homo sapiens, UniProt Q9UBT2); test: blockers of SAE1/SAE2–UBC9 SUMO transfer – biochemical, HTRF, uHTS, primary screen (AID 2006); type: protein-complex assay
T4 sequence (Q9UBE0 whole entry): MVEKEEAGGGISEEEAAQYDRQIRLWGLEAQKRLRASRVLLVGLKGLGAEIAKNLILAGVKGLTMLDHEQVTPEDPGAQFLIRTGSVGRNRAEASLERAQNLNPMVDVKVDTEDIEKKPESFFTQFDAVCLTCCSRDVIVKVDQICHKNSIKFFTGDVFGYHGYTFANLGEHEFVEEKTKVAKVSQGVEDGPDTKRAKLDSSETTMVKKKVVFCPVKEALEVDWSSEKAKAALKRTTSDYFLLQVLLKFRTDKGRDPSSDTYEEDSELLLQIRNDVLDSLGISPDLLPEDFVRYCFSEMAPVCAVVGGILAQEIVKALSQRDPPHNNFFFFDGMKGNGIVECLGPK
T4 sequence (Q9UBT2 whole entry): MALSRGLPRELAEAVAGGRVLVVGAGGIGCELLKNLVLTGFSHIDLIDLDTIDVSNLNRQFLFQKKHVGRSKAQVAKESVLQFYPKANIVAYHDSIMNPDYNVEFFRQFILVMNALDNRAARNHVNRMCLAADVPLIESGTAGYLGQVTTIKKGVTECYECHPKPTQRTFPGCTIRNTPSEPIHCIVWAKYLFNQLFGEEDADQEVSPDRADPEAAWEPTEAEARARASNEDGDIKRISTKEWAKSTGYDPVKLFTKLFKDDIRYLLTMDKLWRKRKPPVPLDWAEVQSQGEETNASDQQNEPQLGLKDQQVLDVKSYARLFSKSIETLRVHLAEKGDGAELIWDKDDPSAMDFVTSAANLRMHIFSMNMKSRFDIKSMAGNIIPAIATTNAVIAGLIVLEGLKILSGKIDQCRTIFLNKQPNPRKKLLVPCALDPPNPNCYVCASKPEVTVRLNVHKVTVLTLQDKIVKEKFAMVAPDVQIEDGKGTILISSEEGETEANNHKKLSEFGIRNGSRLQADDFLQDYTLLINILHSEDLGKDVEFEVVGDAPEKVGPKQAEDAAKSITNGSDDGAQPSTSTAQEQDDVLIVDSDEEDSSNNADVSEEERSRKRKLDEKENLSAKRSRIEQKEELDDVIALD

[5] = molecular target: DNA (cytosine-5)-methyltransferase 1 (Homo sapiens, UniProt P26358); test: inhibition of DNA methylation by DNMT1 – biochemical, fluorescent molecular beacon, confirmation (AID 602386); type: functional
[6] = molecular target: 72 kDa type IV collagenase (Homo sapiens, UniProt P08253); test: Dose Response validation of uHTS RPN11 inhibitor hits using a MMP-2 Fluorescence assay.; type: functional
SUMO-activating enzyme [7] = molecular target: T4, SUMO-activating enzyme; test: blockers of UBC9-mediated SUMO conjugation – biochemical, AlphaScreen, SUMOylation inhibitor project, confirmation (AID 2018); type: functional
[8] = molecular target: T5, Tyrosyl-DNA phosphodiesterase 2 (Homo sapiens, UniProt O95551); test: potency against TDP2 phosphodiesterase activity – biochemical, epi absorbance, IC50, dose response (AID 743297)
T5 sequence (O95551 whole entry): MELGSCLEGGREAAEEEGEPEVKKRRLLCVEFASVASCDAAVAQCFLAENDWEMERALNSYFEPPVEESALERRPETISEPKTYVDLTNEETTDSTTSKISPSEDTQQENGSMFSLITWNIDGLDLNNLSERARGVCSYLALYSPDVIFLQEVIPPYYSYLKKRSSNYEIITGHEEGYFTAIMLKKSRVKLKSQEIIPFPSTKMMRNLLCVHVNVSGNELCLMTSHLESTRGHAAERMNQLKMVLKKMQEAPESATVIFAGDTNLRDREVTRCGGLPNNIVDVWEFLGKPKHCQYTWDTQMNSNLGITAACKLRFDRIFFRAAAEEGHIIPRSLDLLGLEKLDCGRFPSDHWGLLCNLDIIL

Phospholipase A2 = Phospholipase A2 (Homo sapiens, UniProt P04054); type: functional;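 note: confirmatory dose-response counterscreen on phospholipase A2, testing hits that came from an ultra-high-throughput screen for ATG4B inhibitors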
Sequence of Phospholipase A2 (P04054 whole entry): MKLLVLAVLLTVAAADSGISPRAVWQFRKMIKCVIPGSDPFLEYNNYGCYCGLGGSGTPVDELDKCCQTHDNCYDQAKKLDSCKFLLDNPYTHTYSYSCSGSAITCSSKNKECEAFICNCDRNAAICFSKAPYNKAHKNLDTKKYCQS

[9] = molecular target: Intestinal-type alkaline phosphatase (Homo sapiens, UniProt P09923); test: inhibition of human intestinal alkaline phosphatase – biochemical, dose response (AID 488876); type: functional
Sequence of Intestinal-type alkaline phosphatase (Homo sapiens, UniProt P09923) (P09923 whole entry): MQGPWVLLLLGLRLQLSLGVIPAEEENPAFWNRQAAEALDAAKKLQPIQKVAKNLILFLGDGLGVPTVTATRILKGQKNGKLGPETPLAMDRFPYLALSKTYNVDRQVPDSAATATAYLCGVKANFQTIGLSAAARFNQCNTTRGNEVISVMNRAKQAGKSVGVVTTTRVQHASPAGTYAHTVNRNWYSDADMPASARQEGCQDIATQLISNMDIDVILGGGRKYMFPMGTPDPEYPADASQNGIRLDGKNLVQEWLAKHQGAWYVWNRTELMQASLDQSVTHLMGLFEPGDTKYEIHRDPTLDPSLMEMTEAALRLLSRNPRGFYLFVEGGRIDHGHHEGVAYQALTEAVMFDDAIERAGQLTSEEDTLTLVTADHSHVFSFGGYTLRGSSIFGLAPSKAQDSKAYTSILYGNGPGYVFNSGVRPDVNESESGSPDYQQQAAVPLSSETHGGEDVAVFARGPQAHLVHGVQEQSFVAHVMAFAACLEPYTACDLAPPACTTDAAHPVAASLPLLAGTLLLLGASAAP

[10] = molecular target: T6, Histone-lysine N-methyltransferase NSD2 (Homo sapiens, UniProt O96028); type: biochemical
T6 sequence (O96028 whole entry): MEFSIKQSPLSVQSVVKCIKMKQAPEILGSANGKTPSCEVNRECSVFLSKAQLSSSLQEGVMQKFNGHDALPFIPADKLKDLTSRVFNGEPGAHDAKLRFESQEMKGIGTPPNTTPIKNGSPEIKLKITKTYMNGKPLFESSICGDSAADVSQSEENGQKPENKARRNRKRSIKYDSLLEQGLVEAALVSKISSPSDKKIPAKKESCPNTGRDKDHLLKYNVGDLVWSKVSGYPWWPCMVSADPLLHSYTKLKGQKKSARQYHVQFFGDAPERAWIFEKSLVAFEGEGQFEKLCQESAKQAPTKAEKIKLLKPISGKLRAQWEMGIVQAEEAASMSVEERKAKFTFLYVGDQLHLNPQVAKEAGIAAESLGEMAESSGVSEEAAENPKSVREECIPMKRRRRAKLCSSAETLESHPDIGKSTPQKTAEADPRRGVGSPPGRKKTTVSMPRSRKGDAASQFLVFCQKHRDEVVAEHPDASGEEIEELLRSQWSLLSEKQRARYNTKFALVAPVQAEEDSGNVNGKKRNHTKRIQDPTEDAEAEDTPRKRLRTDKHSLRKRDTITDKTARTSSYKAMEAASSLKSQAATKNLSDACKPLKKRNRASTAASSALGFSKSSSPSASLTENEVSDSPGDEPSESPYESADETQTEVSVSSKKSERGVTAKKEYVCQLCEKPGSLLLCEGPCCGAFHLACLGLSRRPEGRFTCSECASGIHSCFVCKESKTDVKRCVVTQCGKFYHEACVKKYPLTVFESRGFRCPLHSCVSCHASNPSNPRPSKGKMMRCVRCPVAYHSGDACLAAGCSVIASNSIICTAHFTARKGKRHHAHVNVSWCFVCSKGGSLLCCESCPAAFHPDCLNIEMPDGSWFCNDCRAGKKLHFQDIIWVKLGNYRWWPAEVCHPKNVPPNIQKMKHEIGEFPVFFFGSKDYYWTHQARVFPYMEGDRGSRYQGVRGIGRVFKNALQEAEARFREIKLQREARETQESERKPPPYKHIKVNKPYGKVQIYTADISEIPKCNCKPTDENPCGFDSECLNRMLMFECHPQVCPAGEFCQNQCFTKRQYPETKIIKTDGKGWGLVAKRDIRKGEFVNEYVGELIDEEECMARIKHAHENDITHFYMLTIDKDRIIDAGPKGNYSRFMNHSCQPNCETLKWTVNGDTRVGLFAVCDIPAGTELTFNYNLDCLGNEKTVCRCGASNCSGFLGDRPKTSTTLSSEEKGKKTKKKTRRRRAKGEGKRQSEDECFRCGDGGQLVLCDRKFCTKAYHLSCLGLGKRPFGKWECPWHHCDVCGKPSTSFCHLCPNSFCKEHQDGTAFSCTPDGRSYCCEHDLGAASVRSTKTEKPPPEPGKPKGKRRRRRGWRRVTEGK

[11] = molecular target: Intestinal-type alkaline phosphatase (Mus musculus, UniProt P24822); test: PubChem AID 488785; type: functional
Sequence of Intestinal-type alkaline phosphatase (Mus musculus, UniProt P24822) (P24822 whole entry): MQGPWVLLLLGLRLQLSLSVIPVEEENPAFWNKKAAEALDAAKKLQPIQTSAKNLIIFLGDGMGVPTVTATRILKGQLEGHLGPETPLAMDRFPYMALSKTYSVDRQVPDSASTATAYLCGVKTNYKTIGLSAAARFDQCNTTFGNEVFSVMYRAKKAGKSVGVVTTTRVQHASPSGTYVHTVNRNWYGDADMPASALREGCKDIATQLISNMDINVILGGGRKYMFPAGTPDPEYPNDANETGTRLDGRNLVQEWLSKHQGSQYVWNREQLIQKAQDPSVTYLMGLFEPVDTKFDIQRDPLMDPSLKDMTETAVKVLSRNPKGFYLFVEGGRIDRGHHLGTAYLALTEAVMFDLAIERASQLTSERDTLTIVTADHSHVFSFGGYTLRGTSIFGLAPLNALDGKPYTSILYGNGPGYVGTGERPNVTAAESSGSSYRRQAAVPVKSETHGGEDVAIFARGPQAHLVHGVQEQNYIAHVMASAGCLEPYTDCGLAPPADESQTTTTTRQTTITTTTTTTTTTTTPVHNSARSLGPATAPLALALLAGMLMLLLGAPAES

[12] = molecular target: 26S proteasome non-ATPase regulatory subunit 14 (Homo sapiens, UniProt O00487); test: inhibition of proteasome subunit RPN11 – biochemical, fluorescence polarization, uHTS hits, confirmation (AID 602368); type: functional
Keap1/Nrf2 = Keap1/Nrf2 (Homo sapiens, UniProt Q14145); test: disruptors of Keap1 binding to Nrf2 peptide – biochemical, fluorescence polarization, cherry-picked samples, dose response (AID 588683)
Sequence of Keap1/Nrf2 (Q16236 whole entry): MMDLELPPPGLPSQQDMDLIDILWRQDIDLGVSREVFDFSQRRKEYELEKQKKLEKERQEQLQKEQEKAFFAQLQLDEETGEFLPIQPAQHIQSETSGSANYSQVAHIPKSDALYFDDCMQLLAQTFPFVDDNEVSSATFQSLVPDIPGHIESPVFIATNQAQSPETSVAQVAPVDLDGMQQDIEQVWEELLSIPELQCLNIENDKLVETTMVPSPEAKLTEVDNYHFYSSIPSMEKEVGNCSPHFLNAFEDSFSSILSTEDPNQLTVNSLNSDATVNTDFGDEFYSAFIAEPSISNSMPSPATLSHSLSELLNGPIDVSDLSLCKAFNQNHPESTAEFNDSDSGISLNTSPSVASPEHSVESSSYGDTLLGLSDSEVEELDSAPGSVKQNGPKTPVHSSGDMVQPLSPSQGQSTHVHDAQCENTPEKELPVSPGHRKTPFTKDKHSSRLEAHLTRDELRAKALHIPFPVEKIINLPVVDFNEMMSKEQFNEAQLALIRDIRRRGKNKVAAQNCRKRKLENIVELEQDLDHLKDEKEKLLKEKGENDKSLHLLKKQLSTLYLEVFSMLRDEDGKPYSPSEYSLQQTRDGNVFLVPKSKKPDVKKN
Sequence of Keap1/Nrf2 (Q14145 whole entry): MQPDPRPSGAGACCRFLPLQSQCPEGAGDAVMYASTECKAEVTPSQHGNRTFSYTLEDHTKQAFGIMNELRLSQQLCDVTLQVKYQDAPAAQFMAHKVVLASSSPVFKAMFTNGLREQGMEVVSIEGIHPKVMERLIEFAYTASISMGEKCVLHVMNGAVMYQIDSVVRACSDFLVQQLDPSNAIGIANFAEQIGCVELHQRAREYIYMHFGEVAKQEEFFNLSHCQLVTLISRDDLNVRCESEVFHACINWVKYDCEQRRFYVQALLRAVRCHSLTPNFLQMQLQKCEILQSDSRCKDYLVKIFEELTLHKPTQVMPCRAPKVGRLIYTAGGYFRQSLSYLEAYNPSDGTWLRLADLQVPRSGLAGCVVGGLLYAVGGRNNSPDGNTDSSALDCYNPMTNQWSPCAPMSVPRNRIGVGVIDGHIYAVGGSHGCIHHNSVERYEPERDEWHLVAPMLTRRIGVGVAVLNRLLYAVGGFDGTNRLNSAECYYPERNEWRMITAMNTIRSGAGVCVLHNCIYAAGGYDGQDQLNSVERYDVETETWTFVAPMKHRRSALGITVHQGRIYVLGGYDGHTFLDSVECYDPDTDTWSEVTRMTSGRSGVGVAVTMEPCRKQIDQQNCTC

Beta-lactamase [13] = molecular target: Beta-lactamase (Pseudomonas aeruginosa, UniProt Q79MP6);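 note: biochemical dose-response test of metallo-beta-lactamase enzyme inhibition, read out by epi-absorbance; purified recombinant IMP-1 metallo-beta-lactamase with nitrocefin as substrate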
[14] = molecular target: Voltage-dependent T-type calcium channel subunit alpha-1H (Homo sapiens, UniProt O95180); type: functional;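 note: channel activity triggered by adding a high calcium stimulation buffer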
[15] = molecular target: T7, Zinc finger protein mex-5 (Caenorhabditis elegans, UniProt Q9XUB2); test: potency of MEX-5 RNA-binding blockers – biochemical, C. elegans, fluorescence polarization, dose response (AID 1960)
T7 sequence (Q9XUB2 whole entry): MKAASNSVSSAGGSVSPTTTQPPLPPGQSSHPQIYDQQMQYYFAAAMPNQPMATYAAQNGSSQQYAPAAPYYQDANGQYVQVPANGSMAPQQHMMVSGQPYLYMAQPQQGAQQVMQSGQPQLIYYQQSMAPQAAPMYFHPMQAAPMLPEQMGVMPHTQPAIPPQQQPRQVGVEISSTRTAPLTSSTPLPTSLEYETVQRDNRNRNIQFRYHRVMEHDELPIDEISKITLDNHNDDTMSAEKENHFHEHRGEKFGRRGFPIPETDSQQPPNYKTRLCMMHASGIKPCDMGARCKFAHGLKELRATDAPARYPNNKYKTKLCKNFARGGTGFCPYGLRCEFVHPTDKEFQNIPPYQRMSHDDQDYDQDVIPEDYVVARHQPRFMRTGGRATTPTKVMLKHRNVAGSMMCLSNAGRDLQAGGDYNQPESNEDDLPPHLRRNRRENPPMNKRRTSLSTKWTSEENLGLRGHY

[16] = molecular target: T8, RNA-binding protein pos-1 (Caenorhabditis elegans, UniProt G5EF15); test: disruptors of C. elegans POS-1 RNA interaction – biochemical, fluorescence polarization, dose response (AID 1964);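 note: purified POS-1 fused to maltose binding protein made in E. coli; potency of compounds blocking POS-1 binding to fluorescent RNA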
T8 sequence (G5EF15 whole entry): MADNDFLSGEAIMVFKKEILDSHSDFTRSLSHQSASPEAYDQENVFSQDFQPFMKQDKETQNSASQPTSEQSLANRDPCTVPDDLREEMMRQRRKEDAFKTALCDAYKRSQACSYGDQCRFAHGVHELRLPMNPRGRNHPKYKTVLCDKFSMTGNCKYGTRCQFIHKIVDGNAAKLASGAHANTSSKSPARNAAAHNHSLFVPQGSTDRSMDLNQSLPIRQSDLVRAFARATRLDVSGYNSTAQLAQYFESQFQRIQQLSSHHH

Beta-lactamase [17] = molecular target: Beta-lactamase (Salmonella choleraesuis (strain SC-B67), UniProt Q5J463)
[18] = molecular target: DNA dC->dU-editing enzyme APOBEC-3A (Homo sapiens, UniProt P31941); test: A3A deaminase inhibition for selectivity – biochemical, dose response (AID 504722); type: functional
[19] = molecular target: DNA dC->dU-editing enzyme APOBEC-3G (Homo sapiens, UniProt Q9HC16); test: Dose Response confirmation of small molecule APOBEC3G DNA Deaminase Inhibitors via a fluorescence-based single-stranded DNA deaminase assay. [Related pubchem assays (depositor defined):AID493012, AID493028]; type: functional
Sequence of DNA dC->dU-editing enzyme APOBEC-3G (Q9HC16 whole entry): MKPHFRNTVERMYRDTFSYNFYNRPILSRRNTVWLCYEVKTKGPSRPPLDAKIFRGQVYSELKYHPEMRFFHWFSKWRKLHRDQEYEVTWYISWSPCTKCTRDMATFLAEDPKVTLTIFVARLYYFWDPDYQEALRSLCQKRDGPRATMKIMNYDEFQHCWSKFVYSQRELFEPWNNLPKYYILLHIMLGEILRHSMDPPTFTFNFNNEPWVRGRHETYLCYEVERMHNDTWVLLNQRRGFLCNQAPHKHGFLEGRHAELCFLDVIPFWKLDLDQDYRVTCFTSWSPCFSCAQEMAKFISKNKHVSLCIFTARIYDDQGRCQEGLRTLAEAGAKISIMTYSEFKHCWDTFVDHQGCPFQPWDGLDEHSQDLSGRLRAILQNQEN

## COc1ccc(OC)c(N2C(=O)NC(=O)/C(=C\c3ccc([N+](=O)[O-])s3)C2=O)c1
[1]
  AC50: 4.17 µM (active)
ORF 73
  AC50: 90.7 µM (active)
[2]
  EC50: > 195 µM (not active)
Genome polyprotein
  IC50: 39.9 µM (active)

## COc1cc(NS(=O)(=O)c2ccc(NC(=S)NC(=O)/C=C/c3ccco3)cc2)ncn1
Cysteine protease ATG4B
  IC50: 6 µM (active)
Prothrombin
  IC50: 20.5 µM (active)
[3]
  IC50: 45.9 µM (active)
SUMO-activating enzyme [4]
  IC50: 26.1 µM (active)
[5]
  IC50: 2.92 µM (active)
[6]
  IC50: 2.15 µM (active)
SUMO-activating enzyme [7]
  IC50: 2.41 µM (active)
[8]
  IC50: 30.4 µM (inactive)
Phospholipase A2
  IC50: > 80 µM (inactive)
[9]
  IC50: > 100 µM (inactive)
[10]
  AC50: 13.2 µM (active)
[11]
  IC50: 18.4 µM (active)
[12]
  IC50: 12.9 µM (active)
Keap1/Nrf2
  AC50: > 52 µM (inactive)

## Cc1n[nH]c(C)c1N1C(=O)c2cccc3c(N4CCCCCC4)ccc(c23)C1=O
Beta-lactamase [13]
  IC50: > 59.6 µM (inactive)
[14]
  EC50: 1.04 µM (active)
[15]
  EC50: 1.72 µM (inconclusive)
ORF 73
  AC50: > 350 µM (inactive)
[16]
  EC50: 6.94 µM (inconclusive)
Beta-lactamase [17]
  IC50: 27.8 µM (inactive)
Keap1/Nrf2
  AC50: 32.5 µM (active)

## Sc1nnc(COc2ccccc2)n1/N=C/c1ccccn1
[18]
  IC50: > 100 µM (inactive)
[19]
  IC50: 3.99 µM (active)
